Test results reported in patent US20100041892A1, “Therapeutic agent for diabetes” (priority 2005, published 2010).

Tests used:
PPARγ-RXRα heterodimer = molecular target: T1, PPARγ-RXRα heterodimer (Homo sapiens, UniProt P37231); experiment: PPARγ-RXRα heterodimer ligand activity (luciferase reporter, PPARγ:RXRα:4ERPP/CHO-K1 cells); format: cell-based; settings: concentration showing 50% of the maximum luciferase induction rate; CHO-K1 reporter cells, one day incubation
T1 construct: expressed in transfected cells; host or cells: CHO-K1 (PPARγ:RXRα:4ERPP/CHO-K1)
T1 sequence (P37231 1-477 isoform P37231-2): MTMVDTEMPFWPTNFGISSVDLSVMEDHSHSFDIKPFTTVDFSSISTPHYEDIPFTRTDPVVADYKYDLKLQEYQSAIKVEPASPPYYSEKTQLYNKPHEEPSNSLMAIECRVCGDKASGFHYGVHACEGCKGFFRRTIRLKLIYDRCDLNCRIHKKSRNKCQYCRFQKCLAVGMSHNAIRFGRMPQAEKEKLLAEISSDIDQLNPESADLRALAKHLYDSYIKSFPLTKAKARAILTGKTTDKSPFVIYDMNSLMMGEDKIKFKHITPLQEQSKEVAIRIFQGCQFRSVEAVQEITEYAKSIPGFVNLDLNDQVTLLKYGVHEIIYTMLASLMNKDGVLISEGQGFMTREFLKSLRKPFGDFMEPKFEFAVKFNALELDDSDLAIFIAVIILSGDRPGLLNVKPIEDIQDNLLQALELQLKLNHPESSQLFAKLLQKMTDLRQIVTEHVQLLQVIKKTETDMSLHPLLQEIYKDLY
T1 sequence (P19793 1-462 partner): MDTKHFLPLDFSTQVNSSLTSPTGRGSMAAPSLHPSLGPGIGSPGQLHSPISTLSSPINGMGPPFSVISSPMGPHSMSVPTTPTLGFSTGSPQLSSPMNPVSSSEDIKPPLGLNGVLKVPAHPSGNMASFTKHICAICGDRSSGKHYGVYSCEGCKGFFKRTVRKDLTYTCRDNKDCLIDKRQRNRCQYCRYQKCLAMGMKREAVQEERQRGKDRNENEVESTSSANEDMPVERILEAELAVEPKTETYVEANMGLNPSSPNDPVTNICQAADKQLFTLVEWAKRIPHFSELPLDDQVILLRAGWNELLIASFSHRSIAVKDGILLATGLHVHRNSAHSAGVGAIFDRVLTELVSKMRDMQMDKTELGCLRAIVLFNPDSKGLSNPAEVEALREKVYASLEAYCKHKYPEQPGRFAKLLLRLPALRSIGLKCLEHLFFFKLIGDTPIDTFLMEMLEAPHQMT
Method: The PPARγ:RXRα:4ERPP/CHO-K1 cells described in WO03/099793 were cultured in a Ham F12 medium [manufactured by Life Technologies, Inc., US] containing 10% calf fetal serum [manufactured by Life Technologies, Inc., US], sown in a 96-well white plate (manufactured by Corning Coster Corporation, US] at 1×10^4 cells/well, and incubated overnight in a carbon dioxide gas incubator at 37° C.
Then, the medium was removed from the 96 well white plate, 45 μl of Ham F12-medium containing 0.1% fatty acid-free bovine serum albumin (BSA) and a test compound (5 μl) were added, and the cells were incubated for one day in a carbon dioxide gas incubator at 37° C. The medium was removed, 20 μl of PicaGene 7.5 (manufactured by Wako Pure Chemical Industries, Ltd.) 2-fold diluted with HBSS (HANKS' BALANCED SALT SOLUTION) [manufactured by BIO WHITTAKER, US] was added. After stirring, the luciferase activity was determined using the 1420 ARVO Multilabel Counter [manufactured by PerkinElmer, US].
The induction rate was calculated from the luciferase activity of each test compound based on the luciferase activity of the test compound non-administration group as 1. The test compound concentration and the induction rate were analyzed by PRISM [manufactured by GraphPad Software, Inc., US] to calculate EC50 value (compound concentration showing 50% of the maximum value of induction rate) of the test compound.

Compound CCCCCS(=O)(=O)NC(=O)/C=C/c1ccc(OC(C)C)cc1Oc1ncc(C(F)(F)F)cc1Cl [Example 13, (2E)-3-[2-{[3-chloro-5-(trifluoromethyl)pyridin-2-yl]oxy}-4-isopropoxyphenyl]-N-(pentylsulfonyl)acrylamide] has an EC50 (PPARγ-RXRα heterodimer) of 26 nM.
For COCCOc1ccc(CCCOC(=O)NS(=O)(=O)c2ccc(Cl)cc2)c(Oc2ncc(C(F)(F)F)cc2Cl)c1 [Example 32, 3-[2-{[3-chloro-5-(trifluoromethyl)pyridin-2-yl]oxy}-4-(2-methoxyethoxy)phenyl]propyl [(4 chlorophenyl)sulfonyl]carbamate], the EC50 (PPARγ-RXRα heterodimer) was 6.6 nM and the melting point was 147 to 150 °C.
CCCCCS(=O)(=O)NC(=O)CCc1ccc(OCC(=O)N(CC)CC)cc1Oc1ncc(C(F)(F)F)cc1Cl [Example 44, 3-{2-{[3-chloro-5-(trifluoromethyl)pyridin-2-yl]oxy}-4-[2-(diethylamino)-2-oxoethoxy]phenyl}-N-(pentylsulfonyl)propanamide] gave an EC50 (PPARγ-RXRα heterodimer) of 6.9 nM.
Compound CCCCCS(=O)(=O)NC(=O)CCc1ccc(OCCN2CCCC2=O)cc1Oc1ncc(C(F)(F)F)cc1Cl [Example 47, 3-{2-{[3-chloro-5-(trifluoromethyl)pyridin-2-yl]oxy}-4-[2-(2-oxopyrrolidin-1-yl)ethoxy]phenyl}-N-(pentylsulfonyl)propanamide] has an EC50 (PPARγ-RXRα heterodimer) of 3.4 nM.
COCCOc1ccc(CCCOC(=O)NCC2CC2)c(Oc2ncc(C(F)(F)F)cc2Cl)c1 [Example 51, 3-[2-{[3-chloro-5-(trifluoromethyl)pyridin-2-yl]oxy}-4-(2-methoxyethoxy)phenyl]propyl (cyclopropylmethyl)carbamate] gave an EC50 (PPARγ-RXRα heterodimer) of 20 nM and a melting point of 87.8 to 87.9 °C.
For CCCCCS(=O)(=O)NC(=O)OCc1ccc(OS(=O)(=O)CCC)cc1Oc1ncc(C(F)(F)F)cc1Cl [Example 64, 3-{[3-chloro-5-(trifluoromethyl)pyridin-2-yl]oxy}-4-[({[(pentylsulfonyl)amino]carbonyl}oxy)methyl]phenyl propane-1-sulfonate], the EC50 (PPARγ-RXRα heterodimer) was 8.7 nM and the melting point was 86 to 89 °C.
CCCCCS(=O)(=O)NC(=O)/C=C/c1cc(OC(C)C)nn1Cc1ccc(C(F)(F)F)cc1Cl [Example 111, (2E)-3-{1-[2-chloro-4-(trifluoromethyl)benzyl]-3-isopropoxy-1H-pyrazol-5-yl}-N-(pentylsulfonyl)acrylamide] gave an EC50 (PPARγ-RXRα heterodimer) of 9.3 nM.
Work on CCCCCS(=O)(=O)NC(=O)CCc1ccc(OCCOC)cc1OCc1nc(-c2ccccc2)oc1C [Example 173, 3-{4-(2-methoxyethoxy)-2-[(5-methyl-2-phenyl-1,3-oxazol-4-yl)methoxy]phenyl}-N-(pentylsulfonyl)propanamide] yielded an EC50 (PPARγ-RXRα heterodimer) of 9.8 nM and a melting point of 95.9 to 96.7 °C.
CCCCCS(=O)(=O)NC(=O)/C(C)=C/c1ccc(OCCCOC)cc1Oc1ncc(Cl)cc1Cl [Example 190, (2E)-3-[2-[(3,5-dichloropyridin-2-yl)oxy]-4-(3-methoxypropoxy)phenyl]-2-methyl-N-(pentylsulfonyl)acrylamide] gave an EC50 (PPARγ-RXRα heterodimer) of 15 nM and a melting point of 116 to 116.8 °C.
CCCCCS(=O)(=O)NC(=O)/C=C/c1cc(OC(C)C)nn1Cc1ncc(C(F)(F)F)cc1Cl [Example 199, (2E)-3-(1-{[3-chloro-5-(trifluoromethyl)pyridin-2-yl]methyl}-3-isopropoxy-1H-pyrazol-5-yl)-N-(pentylsulfonyl)acrylamide] showed an EC50 (PPARγ-RXRα heterodimer) of 13 nM.
In the case of CCCCCS(=O)(=O)NC(=O)C(C)Cc1ccc(OCCOC)cc1Oc1ncc(C(F)(F)F)cc1Cl (stereo not shown) [Example 209, 3-[2-{[3-chloro-5-(trifluoromethyl)pyridin-2-yl]oxy}-4-(2-methoxyethoxy)phenyl]-2-methyl-N-(pentylsulfonyl)propanamide], the EC50 (PPARγ-RXRα heterodimer) is reported as 2.3 nM.
For C/C(=C\c1ccc(OC(C)C)cc1Oc1ncc(C(F)(F)F)cc1Cl)C(=O)NS(=O)(=O)NC1CCC(C)CC1 (stereo not shown) [Example 223, (2E)-3-(2-{[3-chloro-5-(trifluoromethyl)pyridin-2-yl]oxy}-4-isopropoxyphenyl)-2-methyl-N-{[(4-methylcyclohexyl)amino]sulfonyl}acrylamide], the EC50 (PPARγ-RXRα heterodimer) was 55 nM and the melting point was 176.8 to 177.2 °C.
In the case of CCCCCNS(=O)(=O)NC(=O)/C(C)=C/c1ccc(OC(C)C)cc1Oc1ncc(C(F)(F)F)cc1Cl [Example 224, (2E)-3-(2-{[3-chloro-5-(trifluoromethyl)pyridin-2-yl]oxy}-4-isopropoxyphenyl)-2-methyl-N-[(pentylamino)sulfonyl]acrylamide], the EC50 (PPARγ-RXRα heterodimer) is reported as 16 nM and the melting point is reported as 137.8 to 138.5 °C.
C/C(=C\c1ccc(OC(C)C)cc1Oc1ncc(C(F)(F)F)cc1Cl)C(=O)NS(=O)(=O)NCCc1cccs1 [Example 225, (2E)-3-(2-{[3-chloro-5-(trifluoromethyl)pyridin-2-yl]oxy}-4-isopropoxyphenyl)-2-methyl-N-({[2-(2-thienyl)ethyl]amino}sulfonyl)acrylamide] showed an EC50 (PPARγ-RXRα heterodimer) of 16 nM and a melting point of 130 to 131 °C.
Compound CCCCCNS(=O)(=O)NC(=O)/C(C)=C/c1ccc(OCCOC)cc1Oc1ncc(C(F)(F)F)cc1Cl [Example 226, (2E)-3-[2-{[3-chloro-5-(trifluoromethyl)pyridin-2-yl]oxy}-4-(2-methoxyethoxy)phenyl]-2-methyl-N-[(pentylamino)sulfonyl]acrylamide] has an EC50 (PPARγ-RXRα heterodimer) of 8.5 nM and a melting point of 152.5 to 153 °C.
In the case of CCCCCS(=O)(=O)NC(=O)/C=C/c1ccc(OCCC(C)(C)O)cc1Oc1ncc(C(F)(F)F)cc1Cl [Example 248, (2E)-3-[2-{[3-chloro-5-(trifluoromethyl)pyridin-2-yl]oxy}-4-(3-hydroxy-3-methylbutoxy)phenyl]-N-(pentylsulfonyl)acrylamide], the EC50 (PPARγ-RXRα heterodimer) is reported as 18 nM and the melting point is reported as 135.5 to 136 °C.
Compound CCCCCS(=O)(=O)NC(=O)/C=C/c1ccc(OCCCOC)cc1Oc1ncc(C(F)(F)F)cc1Cl [Example 251, (2E)-3-[2-{[3-chloro-5-(trifluoromethyl)pyridin-2-yl]oxy}-4-(3-methoxypropoxy)phenyl]-N-(pentylsulfonyl)acrylamide] has an EC50 (PPARγ-RXRα heterodimer) of 7.4 nM.
Work on CCCCCS(=O)(=O)NC(=O)CCc1ccc(OCCCOCCOC)cc1Oc1ncc(C(F)(F)F)cc1Cl [Example 255, 3-{2-{[3-chloro-5-(trifluoromethyl)pyridin-2-yl]oxy}-4-[3-(2-methoxyethoxy)propoxy]phenyl}-N-(pentylsulfonyl)propanamide] yielded an EC50 (PPARγ-RXRα heterodimer) of 3.9 nM and a melting point of 95 to 95.8 °C.
Work on CCCCCS(=O)(=O)NC(=O)/C=C/c1ccc(OCCOCCOC)cc1Oc1ncc(C(F)(F)F)cc1Cl [Example 256, (2E)-3-{2-{[3-chloro-5-(trifluoromethyl)pyridin-2-yl]oxy}-4-[2-(2-methoxyethoxy)ethoxy]phenyl}-N-(pentylsulfonyl)acrylamide] yielded an EC50 (PPARγ-RXRα heterodimer) of 13 nM and a melting point of 81 to 83 °C.
COCCOc1ccc(CCCOC(=O)NS(=O)(=O)N2Cc3ccccc3C2)c(Oc2ncc(C(F)(F)F)cc2Cl)c1 [Example 371, 3-[2-{[3-chloro-5-(trifluoromethyl)pyridin-2-yl]oxy}-4-(2-methoxyethoxy)phenyl]propyl (1,3-dihydro-2H-isoindol-2-ylsulfonyl)carbamate] showed an EC50 (PPARγ-RXRα heterodimer) of 4.7 nM.
With COCCOc1ccc(CCCOC(=O)NS(=O)(=O)NCCc2ccccn2)c(Oc2ncc(Cl)cc2Cl)c1 [Example 427, 3-[2-[(3,5-dichloropyridin-2-yl)oxy]-4-(2-methoxyethoxy)phenyl]propyl {[(2-pyridin-2-ylethyl)amino]sulfonyl}carbamate] the EC50 (PPARγ-RXRα heterodimer) was 22 nM.
Compound CCCCCS(=O)(=O)NC(=O)/C=C/c1ccc(OCCCC#N)cc1Oc1ncc(C(F)(F)F)cc1Cl [Example 451, (2E)-3-[2-{[3-chloro-5-(trifluoromethyl)pyridin-2-yl]oxy}-4-(3-cyanopropoxy)phenyl]-N-(pentylsulfonyl)acrylamide] has an EC50 (PPARγ-RXRα heterodimer) of 15 nM.
